Laboratory results reported in patent US8188101B2 (AstraZeneca AB, priority 2008, dated 2012).

Test system: Aβ42 release
Test: Aβ release in cells stably expressing APPswe, Meso Scale Discovery electrochemiluminescence assay
Format: cell-based, Human
Details: Homo sapiens, SH-SY5Y, HEK or SH-SY5Y cells stably expressing APPswe, 4-6 hours incubation with test compound
Description: The level of activity of the compounds on Aβ release was tested using the following method:
Compounds were diluted in 100% DMSO and stored at […] prior to use. Human Embryonic Kidney (HEK) or Human Neuroblastoma (SH-SY5Y) cell lines stably expressing APP with the Swedish mutation (APPswe) were cultured using Dulbecco's Modified Eagles medium (DMEM) supplied with […] glucose, Na-pyruvate and GlutaMAX with 10% FBS, 100 U/ml penicillin-streptomycin (PEST) respectively, 1× non-essential amino acids (NEAA), […] Hepes, 100 μg/ml Zeocine. Cells at about 80% confluence were washed with PBS, detached from culture flasks using 1× Trypsin/EDTA diluted in PBS, re-suspended in cell media and plated in 384-well poly-d-lysine coated cell culture plates at about 10000-15000 cells/well, in 25 μL cell media. Optionally, cryo-preserved cells (frozen and stored at −140° C. in 90% cell media and 10% DMSO) were thawed, washed and plated as above. Next the cells were incubated for 15-24 h at 37° C. and 5% CO2, after which cell medium was changed. Fresh medium containing test compound diluted ×200 from prepared compound plate was added to the cells before further incubation for 4-6 hours at 37° C. and 5% CO2. After incubation with test compound the amount of Aβ peptides, including Aβ42, Aβ40, Aβ39, Aβ38 and Aβ37, secreted to the cell medium was analyzed using the electrochemiluminescence assay technology from Meso Scale Discovery Technology, in combination with specific antibodies raised against the different Aβ peptides. Potential cytotoxic effects of the compounds were usually assayed by measuring the ATP content (ViaLight) from cell lysate.

SMILES | IC50 [nM]
CC(=O)N1CCc2nc(Nc3ccc(-c4cnco4)cc3)nc(N(CCO)c3ccccc3)c2C1 [Example 28, 1-(4-((2-Hydroxyethyl)(phenyl)amino)-2-(4-(oxazol-5-yl)phenylamino)-7,8-dihydropyrido[4,3-d]pyrimidin-6(5H)-yl)ethanone] | 794
CC(=O)N1CCc2nc(Nc3ccc(-c4cnco4)cc3)nc(Nc3cccc(CO)c3)c2C1 [Example 29, 1-(4-(3-(Hydroxymethyl)phenylamino)-2-(4-(oxazol-5-yl)phenylamino)-7,8-dihydropyrido[4,3-d]pyrimidin-6(5H)-yl)ethanone] | 631
CC(=O)N1CCc2nc(Nc3ccc(-c4cnco4)cc3)nc(N3c4ccccc4C[C@H]3CO)c2C1 [Example 30] | 1000
CC(=O)N1CCc2nc(Nc3ccc(-c4cnco4)cc3)nc(N(CCC#N)C3CC3)c2C1 [Example 31, 3-((6-Acetyl-2-(4-(oxazol-5-yl)phenylamino)-5,6,7,8-tetrahydropyrido[4,3-d]pyrimidin-4-yl)(cyclopropyl)amino)propanenitrile] | 794
CC(=O)N1CCc2nc(Nc3ccc(-c4cnco4)cc3)nc(N(CCO)Cc3ccccc3)c2C1 [Example 32, 1-(4-(Benzyl(2-hydroxyethyl)amino)-2-(4-(oxazol-5-yl)phenylamino)-7,8-dihydropyrido[4,3-d]pyrimidin-6(5H)-yl)ethanone] | 794
CC(=O)c1cccc(Nc2nc(Nc3ccc(-c4cnco4)cc3)nc3c2CN(C(C)=O)CC3)c1 [Example 33, 1-(3-(6-Acetyl-2-(4-(oxazol-5-yl)phenylamino)-5,6,7,8-tetrahydropyrido[4,3-d]pyrimidin-4-ylamino)phenyl)ethanone] | 1260
CC(=O)N1CCc2nc(Nc3ccc(-c4cnco4)cc3)nc(N(C)CC(O)c3ccccc3)c2C1 (stereo not shown) [Example 34, 1-(4-((2-Hydroxy-2-phenylethyl)(methyl)amino)-2-(4-(oxazol-5-yl)phenylamino)-7,8-dihydropyrido[4,3-d]pyrimidin-6(5H)-yl)ethanone] | 3160
CC(=O)N1CCc2nc(Nc3ccc(-c4cnco4)cc3)nc(NC3(CO)CCCC3)c2C1 [Example 35, 1-(4-(1-(Hydroxymethyl)cyclopentylamino)-2-(4-(oxazol-5-yl)phenylamino)-7,8-dihydropyrido[4,3-d]pyrimidin-6(5H)-yl)ethanone] | 3160
CC(=O)N1CCc2nc(Nc3ccc(-c4cnco4)cc3)nc(N(C)Cc3cccnc3)c2C1 [Example 36, 1-(4-(Methyl(pyridin-3-ylmethyl)amino)-2-(4-(oxazol-5-yl)phenylamino)-7,8-dihydropyrido[4,3-d]pyrimidin-6(5H)-yl)ethanone] | 5010
CC(=O)N1CCc2nc(Nc3ccc(-c4cnco4)cc3)nc(N3c4ccccc4C[C@@H]3CO)c2C1 [Example 37] | 10000
CN1CCc2nc(Nc3ccc(-c4cnn(C)c4)cc3)nc(N(CCO)c3ccccc3)c2C1 [Example 38, 2-((6-Methyl-2-(4-(1-methyl-1H-pyrazol-4-yl)phenylamino)-5,6,7,8-tetrahydropyrido[4,3-d]pyrimidin-4-yl)(phenyl)amino)ethanol] | 398
CCCN1CCc2nc(Nc3ccc(-c4cnn(C)c4)cc3)nc(N(CCO)c3ccccc3)c2C1 [Example 39, 2-((2-(4-(1-Methyl-1H-pyrazol-4-yl)phenylamino)-6-propyl-5,6,7,8-tetrahydropyrido[4,3-d]pyrimidin-4-yl)(phenyl)amino)ethanol] | 158
Cc1nccn1-c1ccc(Nc2nc3c(c(Cc4ccccc4)n2)CN(CCO)CC3)cc1 [Example 41, 2-(4-Benzyl-2-(4-(2-methyl-1H-imidazol-1-yl)phenylamino)-7,8-dihydropyrido[4,3-d]pyrimidin-6(5H)-yl)ethanol] | 200
Cc1nccn1-c1ccc(Nc2nc3c(c(Cc4ccccc4)n2)CN(C)CC3)cc1 [Example 42, 4-Benzyl-6-methyl-N-(4-(2-methyl-1H-imidazol-1-yl)phenyl)-5,6,7,8-tetrahydropyrido[4,3-d]pyrimidin-2-amine] | 398
COc1cc(Nc2nc3c(c(Cc4ccccc4)n2)COCC3)ccc1-n1cnc(C)c1 [Example 43, 4-Benzyl-N-(3-methoxy-4-(4-methyl-1H-imidazol-1-yl)phenyl)-7,8-dihydro-5H-pyrano[4,3-d]pyrimidin-2-amine] | 63.1
COc1cc(Nc2nc3c(c(Cc4ccc(F)cc4)n2)C[S+]([O-])CC3)ccc1-n1cnc(C)c1 (stereo not shown) [Example 44, 4-(4-Fluorobenzyl)-N-[3-methoxy-4-(4-methyl-1H-imidazol-1-yl)phenyl]-7,8-dihydro-5H-thiopyrano[4,3-d]pyrimidin-2-amine 6-oxide] | 79.4
Cc1nccn1-c1ccc(Nc2nc3c(c(Cc4ccccc4)n2)COCC3)cc1 [Example 45, 4-Benzyl-N-(4-(2-methyl-1H-imidazol-1-yl)phenyl)-7,8-dihydro-5H-pyrano[4,3-d]pyrimidin-2-amine] | 631
Cc1nccn1-c1ccc(Nc2nc3c(c(CC4CCOCC4)n2)CSCC3)cc1 [Example 46, N-(4-(2-Methyl-1H-imidazol-1-yl)phenyl)-4-((tetrahydro-2H-pyran-4-yl)methyl)-7,8-dihydro-5H-thiopyrano[4,3-d]pyrimidin-2-amine] | 1580
Cc1nccn1-c1ccc(Nc2nc(CCC3CCCCC3)c3c(n2)CCN(CCO)C3)cc1 [Example 47, 2-(4-(2-Cyclohexylethyl)-2-(4-(2-methyl-1H-imidazol-1-yl)phenylamino)-7,8-dihydropyrido[4,3-d]pyrimidin-6(5H)-yl)ethanol] | 79.4
Cc1ccc(Cc2nc(Nc3ccc(-n4ccnc4C)cc3)nc3c2CN(CCO)CC3)cc1 [Example 48, 2-(2-(4-(2-Methyl-1H-imidazol-1-yl)phenylamino)-4-(4-methylbenzyl)-7,8-dihydropyrido[4,3-d]pyrimidin-6(5H)-yl)ethanol] | 200
Cc1nccn1-c1ccc(Nc2nc(CCc3cccc(F)c3)c3c(n2)CCN(CCO)C3)cc1 [Example 49, 2-(4-(3-Fluorophenethyl)-2-(4-(2-methyl-1H-imidazol-1-yl)phenylamino)-7,8-dihydropyrido[4,3-d]pyrimidin-6(5H)-yl)ethanol] | 251
Cc1ccc(Cc2nc(Nc3ccc(-n4ccnc4C)cc3)nc3c2CN(C)CC3)cc1 [Example 50, 6-Methyl-N-(4-(2-methyl-1H-imidazol-1-yl)phenyl)-4-(4-methylbenzyl)-5,6,7,8-tetrahydropyrido[4,3-d]pyrimidin-2-amine] | 251
Cc1nccn1-c1ccc(Nc2nc(CCc3cccc(F)c3)c3c(n2)CCN(C)C3)cc1 [Example 51, 4-(3-Fluorophenethyl)-6-methyl-N-(4-(2-methyl-1H-imidazol-1-yl)phenyl)-5,6,7,8-tetrahydropyrido[4,3-d]pyrimidin-2-amine] | 251
Cc1nccn1-c1ccc(Nc2nc3c(c(Cc4ccccc4F)n2)CN(C)CC3)cc1 [Example 52, 4-(2-Fluorobenzyl)-6-methyl-N-(4-(2-methyl-1H-imidazol-1-yl)phenyl)-5,6,7,8-tetrahydropyrido[4,3-d]pyrimidin-2-amine] | 316
COc1cccc(Cc2nc(Nc3ccc(-n4ccnc4C)cc3)nc3c2CN(C)CC3)c1 [Example 53, 4-(3-Methoxybenzyl)-6-methyl-N-(4-(2-methyl-1H-imidazol-1-yl)phenyl)-5,6,7,8-tetrahydropyrido[4,3-d]pyrimidin-2-amine] | 316
